Test results published in ChEMBL document CHEMBL1201862, “PubChem BioAssay data set” (2004).
Activity calls are given as the source filed them.

Assays:
[1] = biological target: Glyceraldehyde-3-phosphate dehydrogenase (Homo sapiens, UniProt P04406)
[2] = biological target: T1, Polyadenylate-binding protein 1 (Homo sapiens, UniProt P11940); test: PABP1 MLLE–PAM2 binding inhibitor potency, dose response, biochemical, fluorescence polarization, FITC-PAM2 peptide (AID 602259); format: functional; conditions: read-out: IC50_Mean
[3] = biological target: T1, Polyadenylate-binding protein 1; test: PABP1 MLLE–PAM2 interaction inhibitors, dose response, miRNA deadenylation inhibitor project, biochemical, fluorescence polarization, Cy5-PAM2 peptide, secondary (AID 602260); format: functional; conditions: read-out: IC50_Mean
Large T antigen = Large T antigen (Simian virus 40, UniProt P03070); format: functional, Betapolyomavirus macacae;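 further: Confirmatory-stage PubChem screen for compounds that inhibit SV40 T antigen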
H9c2 = test: cells; format: functional, cell-based; conditions: Rattus norvegicus, H9c2, Myocardium
cells = format: functional
[4] = biological target: T2, Zinc finger protein mex-5 (Caenorhabditis elegans, UniProt Q9XUB2); test: MEX-5/TCR-2 RNA interaction inhibitors, dose response, biochemical, C. elegans, fluorescence polarization (AID 1960)
T2 sequence (Q9XUB2 whole entry): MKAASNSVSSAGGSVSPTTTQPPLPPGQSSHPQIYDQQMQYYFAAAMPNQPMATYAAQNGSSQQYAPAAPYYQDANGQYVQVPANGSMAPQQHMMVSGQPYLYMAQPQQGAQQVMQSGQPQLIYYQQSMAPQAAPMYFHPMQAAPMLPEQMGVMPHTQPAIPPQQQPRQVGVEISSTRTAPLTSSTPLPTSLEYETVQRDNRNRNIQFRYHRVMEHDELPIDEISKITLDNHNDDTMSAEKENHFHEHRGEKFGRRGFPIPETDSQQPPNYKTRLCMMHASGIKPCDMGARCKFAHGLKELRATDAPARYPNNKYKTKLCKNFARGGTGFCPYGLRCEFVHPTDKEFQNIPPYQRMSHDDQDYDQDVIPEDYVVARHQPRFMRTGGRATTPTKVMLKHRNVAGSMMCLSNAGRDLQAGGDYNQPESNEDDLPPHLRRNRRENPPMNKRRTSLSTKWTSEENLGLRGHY

[5] = biological target: T3, RNA-binding protein pos-1 (Caenorhabditis elegans, UniProt G5EF15); test: inhibitors of POS-1/mex-3 RNA binding, dose response, biochemical, fluorescence polarization (AID 1964);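 further: purified POS-1 fused to maltose binding protein made in E. coli; potency of compounds blocking POS-1 binding to fluorescent RNA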
T3 sequence (G5EF15 whole entry): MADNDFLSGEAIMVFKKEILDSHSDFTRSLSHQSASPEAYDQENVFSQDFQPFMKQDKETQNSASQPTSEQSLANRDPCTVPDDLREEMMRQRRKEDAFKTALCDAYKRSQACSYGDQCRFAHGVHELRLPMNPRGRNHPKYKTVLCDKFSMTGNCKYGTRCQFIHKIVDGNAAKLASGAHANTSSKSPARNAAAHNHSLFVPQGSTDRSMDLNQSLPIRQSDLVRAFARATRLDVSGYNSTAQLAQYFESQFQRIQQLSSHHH

Streptococcus = test: Group A Streptococcus viability loss, dose response, counter-screen for streptokinase expression inhibitor project, luminescence, BacTiterGlo (AID 1915); format: functional, organism-based;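 further: potency for reduction of bacterial viability or growth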
[6] = microbe, parasite or virus in culture; format: functional; conditions: Mycobacterium tuberculosis
[7] = biological target: T4, Replicative DNA helicase DnaB (Mycobacterium tuberculosis, UniProt P9WMR3); test: DnaB intein splicing inhibitors, dose response, biochemical, cell-free fluorescence (AID 449749); format: functional
T4 sequence (P9WMR3 whole entry): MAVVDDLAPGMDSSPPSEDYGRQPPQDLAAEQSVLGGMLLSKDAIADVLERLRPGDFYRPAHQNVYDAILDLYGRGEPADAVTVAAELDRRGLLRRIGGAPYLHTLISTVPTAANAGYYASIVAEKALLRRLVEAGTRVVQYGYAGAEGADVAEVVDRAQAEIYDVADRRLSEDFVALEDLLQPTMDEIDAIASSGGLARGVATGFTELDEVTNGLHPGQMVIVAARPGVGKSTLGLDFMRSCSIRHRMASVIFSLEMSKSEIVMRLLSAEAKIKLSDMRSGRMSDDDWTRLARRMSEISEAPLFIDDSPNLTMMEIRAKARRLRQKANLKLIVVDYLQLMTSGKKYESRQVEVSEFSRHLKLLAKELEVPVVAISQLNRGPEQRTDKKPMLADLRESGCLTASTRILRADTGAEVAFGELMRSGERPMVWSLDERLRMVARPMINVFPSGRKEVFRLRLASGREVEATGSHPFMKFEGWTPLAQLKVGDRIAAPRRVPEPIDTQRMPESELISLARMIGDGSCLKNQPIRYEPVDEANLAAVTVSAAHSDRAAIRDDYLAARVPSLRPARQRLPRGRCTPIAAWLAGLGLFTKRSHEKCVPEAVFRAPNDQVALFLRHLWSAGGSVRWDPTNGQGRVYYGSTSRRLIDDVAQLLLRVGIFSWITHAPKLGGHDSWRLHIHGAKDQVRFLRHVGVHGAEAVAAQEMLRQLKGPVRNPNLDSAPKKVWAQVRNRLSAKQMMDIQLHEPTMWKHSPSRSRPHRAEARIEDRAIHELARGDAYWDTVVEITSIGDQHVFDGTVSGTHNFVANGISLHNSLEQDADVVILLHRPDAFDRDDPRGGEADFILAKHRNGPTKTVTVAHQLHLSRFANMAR

[8] = test system: Streptococcus sp. 'group A'; test: growth inhibition of control SK(-) GAS strain, dose response, counter-screen for streptokinase expression inhibitor project, luminescence, kanamycin, BacTiterGlo, confirmation (AID 1900); format: functional, organism-based
Protein RecA = biological target: T5, Protein RecA (Mycobacterium tuberculosis, UniProt P9WHJ3); test: Fluorescence Cell-Free Homogeneous Dose Retest to Identify Inhibitors of RecA-Intein Splicing Activity. [Related pubchem assays (depositor defined):AID2097, AID2223, AID489010, AID492950]; format: functional
T5 sequence (P9WHJ3 whole entry): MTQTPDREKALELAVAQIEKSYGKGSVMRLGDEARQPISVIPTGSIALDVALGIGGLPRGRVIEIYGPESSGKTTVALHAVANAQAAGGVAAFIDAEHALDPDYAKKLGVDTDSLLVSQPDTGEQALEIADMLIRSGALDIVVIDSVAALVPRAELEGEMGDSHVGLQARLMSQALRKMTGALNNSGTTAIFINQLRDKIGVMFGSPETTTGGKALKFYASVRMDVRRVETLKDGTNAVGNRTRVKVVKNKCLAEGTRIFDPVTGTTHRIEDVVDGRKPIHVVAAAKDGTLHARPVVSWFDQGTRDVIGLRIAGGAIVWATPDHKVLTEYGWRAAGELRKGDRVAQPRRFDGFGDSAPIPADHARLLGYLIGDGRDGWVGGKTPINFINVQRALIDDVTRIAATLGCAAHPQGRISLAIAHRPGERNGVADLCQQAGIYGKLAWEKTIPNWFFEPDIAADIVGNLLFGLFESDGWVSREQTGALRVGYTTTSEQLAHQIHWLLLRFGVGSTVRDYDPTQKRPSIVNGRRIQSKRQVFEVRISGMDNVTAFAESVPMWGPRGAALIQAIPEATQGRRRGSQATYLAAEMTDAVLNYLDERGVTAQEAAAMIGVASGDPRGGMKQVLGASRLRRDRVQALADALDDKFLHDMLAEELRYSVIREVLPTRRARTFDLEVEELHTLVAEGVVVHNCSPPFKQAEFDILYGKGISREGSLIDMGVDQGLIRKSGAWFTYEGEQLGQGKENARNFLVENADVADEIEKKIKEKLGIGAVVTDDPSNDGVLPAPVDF

Streptokinase A = biological target: T6, Streptokinase A (Streptococcus pyogenes serotype M1, UniProt P10520); test: S. pyogenes streptokinase expression inhibitors, potency, dose response, plasminogen activation absorbance, OD405 (AID 1914); format: functional, Streptococcus pyogenes M1 GAS;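 further: secreted streptokinase activity via plasminogen activation per viability signal from cell pellet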
T6 sequence (P10520 whole entry): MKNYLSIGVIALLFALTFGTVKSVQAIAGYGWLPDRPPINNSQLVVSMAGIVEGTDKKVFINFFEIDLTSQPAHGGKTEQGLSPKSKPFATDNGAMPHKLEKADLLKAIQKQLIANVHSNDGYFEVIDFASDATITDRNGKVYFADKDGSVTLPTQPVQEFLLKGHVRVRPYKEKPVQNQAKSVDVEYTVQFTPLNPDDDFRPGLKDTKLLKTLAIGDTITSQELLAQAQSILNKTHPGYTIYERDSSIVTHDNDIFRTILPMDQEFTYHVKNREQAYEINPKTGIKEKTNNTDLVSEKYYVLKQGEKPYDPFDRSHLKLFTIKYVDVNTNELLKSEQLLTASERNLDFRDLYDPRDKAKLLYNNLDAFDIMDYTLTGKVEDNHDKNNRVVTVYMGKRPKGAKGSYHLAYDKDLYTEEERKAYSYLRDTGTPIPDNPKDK

T1 sequence (P11940 whole entry): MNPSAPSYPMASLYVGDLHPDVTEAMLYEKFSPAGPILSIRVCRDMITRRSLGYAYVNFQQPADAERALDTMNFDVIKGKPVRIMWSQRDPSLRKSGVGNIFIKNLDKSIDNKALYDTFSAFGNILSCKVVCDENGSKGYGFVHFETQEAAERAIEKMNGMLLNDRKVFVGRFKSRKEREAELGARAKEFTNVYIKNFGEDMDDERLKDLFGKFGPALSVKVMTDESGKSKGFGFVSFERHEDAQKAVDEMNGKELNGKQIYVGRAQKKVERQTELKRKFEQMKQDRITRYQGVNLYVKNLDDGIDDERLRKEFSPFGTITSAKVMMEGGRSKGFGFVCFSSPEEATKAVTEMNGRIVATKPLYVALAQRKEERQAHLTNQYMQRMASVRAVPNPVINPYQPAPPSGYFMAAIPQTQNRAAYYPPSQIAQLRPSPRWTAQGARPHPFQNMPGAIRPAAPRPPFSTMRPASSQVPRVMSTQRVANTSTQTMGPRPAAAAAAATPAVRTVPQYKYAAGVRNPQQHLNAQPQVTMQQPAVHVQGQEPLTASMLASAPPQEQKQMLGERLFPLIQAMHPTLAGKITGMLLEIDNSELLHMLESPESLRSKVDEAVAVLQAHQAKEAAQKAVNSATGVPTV
Sequence of Glyceraldehyde-3-phosphate dehydrogenase (P04406 whole entry): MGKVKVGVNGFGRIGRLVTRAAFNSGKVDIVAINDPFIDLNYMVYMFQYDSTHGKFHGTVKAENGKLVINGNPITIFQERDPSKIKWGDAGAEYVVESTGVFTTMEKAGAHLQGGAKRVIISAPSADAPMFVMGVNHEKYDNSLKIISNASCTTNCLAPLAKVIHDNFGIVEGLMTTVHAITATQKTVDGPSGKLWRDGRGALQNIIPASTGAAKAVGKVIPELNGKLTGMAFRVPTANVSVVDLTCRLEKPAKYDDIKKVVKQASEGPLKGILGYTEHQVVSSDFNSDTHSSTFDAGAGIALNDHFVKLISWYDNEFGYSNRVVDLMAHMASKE
Sequence of Large T antigen (P03070 whole entry): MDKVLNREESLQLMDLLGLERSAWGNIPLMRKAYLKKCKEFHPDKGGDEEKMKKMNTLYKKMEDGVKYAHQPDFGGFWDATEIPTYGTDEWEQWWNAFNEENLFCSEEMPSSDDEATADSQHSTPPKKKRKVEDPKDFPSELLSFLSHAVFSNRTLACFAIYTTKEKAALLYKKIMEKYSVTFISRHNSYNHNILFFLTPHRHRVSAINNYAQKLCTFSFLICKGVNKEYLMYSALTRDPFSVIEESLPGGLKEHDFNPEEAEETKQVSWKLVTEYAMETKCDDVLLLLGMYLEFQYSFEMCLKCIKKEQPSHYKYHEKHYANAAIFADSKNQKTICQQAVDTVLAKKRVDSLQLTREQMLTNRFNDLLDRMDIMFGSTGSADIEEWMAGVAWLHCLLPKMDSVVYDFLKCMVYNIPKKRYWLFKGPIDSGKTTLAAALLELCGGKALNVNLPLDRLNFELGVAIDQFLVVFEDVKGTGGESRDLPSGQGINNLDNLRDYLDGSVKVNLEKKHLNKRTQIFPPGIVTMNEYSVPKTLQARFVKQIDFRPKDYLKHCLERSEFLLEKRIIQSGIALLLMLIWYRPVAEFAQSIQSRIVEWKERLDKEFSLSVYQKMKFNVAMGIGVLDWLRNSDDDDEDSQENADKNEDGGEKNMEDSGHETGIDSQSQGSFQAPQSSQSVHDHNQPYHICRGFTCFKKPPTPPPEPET

## O=C(CC1CCCCC1)Nc1nc[nH]n1
[1]
  IC50: > 10 µM (inconclusive)

## Cc1cc2cc(CNC(=O)Cc3cccs3)ccc2n1C
[2]
  IC50: > 66 µM (inactive)
[3]
  IC50: > 66 µM (inactive)

## CCC(C)N(C(=O)COC(=O)/C=C/c1ccc(O)c(OC)c1)C1CCS(=O)(=O)C1 (centres undefined)
Large T antigen
  IC50: 11.4 µM (active)

## Cc1ccccc1NC(=O)CSC(=O)c1ccccc1
[2]
  IC50: > 66 µM (inactive)
[3]
  IC50: > 66 µM (inactive)

## CC(C)OCCCNC(=O)CCC(=O)NNc1nc2ccccc2c2nc(-c3ccccc3)nn12
H9c2
  IC50: 13.5 µM (active)

## COc1ccc(C(=O)COC(=O)c2ccc([N+](=O)[O-])s2)cc1OC
cells
  IC50: 10.6 µM (active)
H9c2
  IC50: > 79 µM (inactive)

## COc1ccc(OCC(O)Cn2c(Br)nc3c2c(=O)[nH]c(=O)n3C)cc1 (centres undefined)
H9c2
  IC50: 16.4 µM (active)

## O=C(O)CN1C(=O)C2C3CC(C2C1=O)C1C(c2ccc(F)cc2)c2sc(O)nc2SC31 (centres undefined)
[2]
  IC50: > 66 µM (inactive)
[3]
  IC50: > 66 µM (inactive)

## CN(C)/C=C/C(=O)c1cnc(-c2ccccc2Cl)s1
[4]
  EC50: > 300 µM (not active)
[5]
  EC50: > 300 µM (not active)

## CCc1ccc(N2C(=O)NC(=O)/C(=C\c3cc(C)n(-c4cc(C(=O)O)cc(C(=O)O)c4)c3C)C2=O)cc1
[4]
  EC50: > 300 µM (not active)
[5]
  EC50: > 300 µM (not active)

## COc1ccc(-c2oc(NC(=O)CCl)c(C#N)c2-c2ccc(OC)cc2)cc1
Streptococcus
  EC50: > 150 µM (not active)
[6]
  CC50: 10.1 µM (active)
[7]
  AC50: 0.416 µM (active)
[8]
  EC50: 1.18 µM (active)
Protein RecA
  EC50: 0.67 µM (active)
Streptokinase A
  EC50: 1.16 µM (active)

## CC1CCN(C(=O)CSc2nncn2-c2ccccn2)CC1
[2]
  IC50: > 66 µM (inactive)
[3]
  IC50: > 66 µM (inactive)
